Structures can show the parent of a compound that is named as a salt. Where two headings read alike, the source gives them in different places.
Tests used:
A549 lung cancer cells = assay: A549 xenograft study in athymic nude mice (Example 7), tumor volume; assay type: in vivo; details: combination of doxorubicin 2 mg/kg every 2 days and Compound 91 200 mg/kg every day
Protocol: (§1) A xenograph study was performed using A549 lung cancer cells to interrogate the in vivo synergy between a representative ROS-producing anti-cancer drug and a PKM2 activator. Mice (6-8 week old female athymic nude) were housed under standard conditions, and allowed food and water ad libitum and injected with 1×10^7 A549 cells per mouse.
(§2) Tumor volume and body weights were measured and recorded twice weekly (FIGS. 7A and 7B, respectively). Upon completion of the study, mice were euthanized and tumor tissues were harvested.

A549 cells [1] = assay: GSH-Glo glutathione level assay in A549 cells; assay type: cell-based, human; details: treated 48 hours, even at concentrations as low as 0.1 μM
Protocol: Cells were treated for 48 hours, and then glutathione levels were determined using a GSH-Glo assay kit and procedure from Promega.

[2] = Body weight in A549 xenograft study (Example 7); assay type: in vivo; details: combination of doxorubicin 2 mg/kg every 2 days and Compound 91 200 mg/kg every day, athymic nude mice
Protocol: as §1, with “mouse. […] Compound 91 was administered orally at a concentration of 200 mg/kg every day.” for “mouse.”
as §2

[3] = system: A549 human lung cancer cells; assay: Subcutaneous A549 human lung cancer xenograft model in BALB/c nude mice (Example 8); assay type: in vivo, Mus musculus; details: Group 2: Doxorubicin 2 mg/kg i.v. Q2D × 3 weeks + vehicle p.o.
Protocol: A549 human lung cancer cells were inoculated in BALB/c nude mice and treatment was initiated when tumors reached a mean volume of approximately 100 mm^3.
4.5 Randomization 60 mice were enrolled in the study. All animals were randomly allocated to the 6 different study groups. […] Randomization was performed based on “Matched distribution” randomization method using multi-task method (StudyDirector™ software, version 3.1.399.19) on day 13.
After tumor cell inoculation, the animals were checked daily for morbidity and mortality. At the time of routine monitoring, the animals were checked for any effects of tumor growth and treatments on behavior such as mobility, food and water consumption, body weight gain/loss (body weight was measured twice per week, or based on request after randomization), and any other abnormalities. Mortality and observed clinical signs were recorded for individual animals.
Tumor volumes were measured twice weekly in two dimensions using a caliper, and the volume was expressed in mm^3 using the formula: V=(L×W×W)/2, where V is tumor volume, L is tumor length (the longest tumor dimension) and W is tumor width (the longest tumor dimension perpendicular to L).
Tumor weight was measured at the end of study based on the protocol. Dosing as well as tumor and body weight measurement were conducted in a Laminar Flow Cabinet.
Statistical analysis of differences in mean tumor volume among the groups was conducted by Independent-Samples T Test using the data collected.
All data were analyzed with SPSS (Statistical Product and Service Solutions) version 18.0 (IBM, Armonk, N.Y., U.S.). […] All tests were two-sided. P<0.05 was considered to be statistically significant.

A549 cells [4] = assay: Cell-titer-Glo cell viability, A549 cells; assay type: cell-based, human
PKM2 = PKM2 (Homo sapiens, UniProt P14618); assay: PKM2 activation biochemical assay (AC50 / max. response vs fructose 1,6-bisphosphate); details: for Max. Resp. (%): % maximum response in a biochemical assay as compared with Fructose 1,6-bisphosphate; for AC50: biochemical assay, read-out: PKM2 AC50
Sequence of PKM2 (P14618 whole entry): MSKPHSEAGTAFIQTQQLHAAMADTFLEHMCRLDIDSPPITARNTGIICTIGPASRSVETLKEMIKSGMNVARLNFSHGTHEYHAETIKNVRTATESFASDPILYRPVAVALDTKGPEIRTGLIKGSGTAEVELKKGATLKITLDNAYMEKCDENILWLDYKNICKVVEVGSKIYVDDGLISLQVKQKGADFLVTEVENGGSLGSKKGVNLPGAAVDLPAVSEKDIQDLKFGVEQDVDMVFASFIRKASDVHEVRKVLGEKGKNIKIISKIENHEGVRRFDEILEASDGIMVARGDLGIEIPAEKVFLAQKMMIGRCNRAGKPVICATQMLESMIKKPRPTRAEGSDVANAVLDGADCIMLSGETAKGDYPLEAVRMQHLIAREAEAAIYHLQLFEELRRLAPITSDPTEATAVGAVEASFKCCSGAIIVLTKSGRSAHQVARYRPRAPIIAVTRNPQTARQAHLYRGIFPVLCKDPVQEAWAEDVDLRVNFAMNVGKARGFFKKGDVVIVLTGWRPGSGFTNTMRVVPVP

Panc1 cells = assay: Cell-titer-Glo cell viability, Panc1 cells; assay type: cell-based; details: Compound 91 at 4 μM
Protocol: A549 and Pancl cells were plated using 384-well plates at a density of 1,200 cells per well. Cells were plated in RPMI media and allowed to adhere for 24 hours at 37° C. […] Cells were also treated with Compound 91 alone as a control. Cell viability was determined according to the Cell-titer-Glo assay kit and protocol from Promega Biosciences, LLC (Madison, Wis.).
A549 and Panc1 cells were plated according to the procedure described in Example 1. Cells were treated using a concentration gradient of rapamycin (FIGS. 5A-B) or Vosaroxin (a TOPOII poison; FIG. 5C), both in the presence and absence of Compound 91 at a concentration of 4 μM in replicates of 7 per condition. Cell viability was determined using the Cell-titer-Glo assay kit according to the procedure described in the examples above.

[5] = Homo sapiens, A549 cells, anti-cancer drug alone, Cell-titer-Glo, read-out: EC50, cell viability

Row | Compound | Max. Resp. (%) (PKM2) | AC50 (PKM2) [µM] | further results
1 | Nc1cccc(F)c1CN(CCC1CCS(=O)(=O)CC1)C(=O)c1cc(C(F)(F)F)n[nH]1 [Compound 91] |  |  | tumor volume (A549 lung cancer cells): best reduction of tumor volume; glutathione levels (GSH-Glo) (A549 cells [1]): decreased levels of glutathione; body weight [2]: no significant body weight reduction or fluctuation
2 | O=S(=O)(c1ccc2c(c1)OCCO2)N1CCN(S(=O)(=O)c2c(F)cccc2F)CC1 [DASA, reference compound] |  |  | glutathione levels (GSH-Glo) (A549 cells [1]): decreased levels of glutathione
3 | COc1cccc2c1C(=O)c1c(O)c3c(c(O)c1C2=O)C[C@@](O)(C(=O)CO)C[C@@H]3O[C@H]1C[C@H](N)[C@H](O)[C@H](C)O1 [Doxorubicin, doxorubicin, reference compound] |  |  | Tumor Size (mm^3) on day 33 ([3]; Mean ± SEM): 723.15 ± 129.91 mm^3; Tumor Weight (mg) on day 33 ([3]; Mean ± SEM): 676.9 ± 107.8 mg; T/C (%) (tumor size) ([3]; day 33): 93%; T/C (%) (tumor weight) ([3]; day 33): 91%; TGI (%) (tumor size) ([3]; day 33): 7%; TGI (%) (tumor weight) ([3]; day 33): 9%
4 | C=CCNc1c(O)cc2c(O)c1C[C@@H](C)C[C@H](OC)[C@H](O)[C@@H](C)/C=C(\C)[C@H](OC(N)=O)[C@@H](OC)/C=C\C=C(/C)C(=O)N2 [IPI-504, retaspimycin hydrochloride] |  |  | EC50 (A549 cells [4]; Homo sapiens, A549, read-out: EC50, cell viability): 0.0599 µM
5 | Cc1ccc2nc(Cn3c(Cc4ccccc4)nc4ccccc43)cc(=O)n2c1 [PP1] | 148 | 3.5 | 
6 | Cc1ccc2nc(Cn3c(C)nc4ccccc43)cc(=O)n2c1 [PP2] | 73 |  | 
7 | Cc1ccc2nc(Cn3cnc4ccccc43)cc(=O)n2c1 [PP3] | 149 | 0.755 | 
8 | O=c1cc(Cn2cnc3ccccc32)nc2ccccn12 [PP4] | 161 | 0.34 | 
9 | Cc1cccc2nc(Cn3cnc4ccccc43)cc(=O)n12 [PP8] |  | 0.159 | glutathione levels (GSH-Glo) (A549 cells [1]): decreased levels of glutathione
10 | Cc1ccn2c(=O)cc(Cn3cnc4ccccc43)nc2c1 [PP9] |  | 0.216 | 
11 | O=c1cc(Cn2cnc3ccccc32)nc2ccc(Cl)cn12 [PP10] |  | 0.219 | 
12 | CCc1ccc(C)n2c(=O)cc(Cn3cnc4ccccc43)nc12 [PP11] |  | 0.12 | 
13 | COc1ccc2nc(Cn3cnc4ccccc43)cc(=O)n2c1 [PP12] |  | 0.47 | 
14 | Cc1cccn2c(=O)cc(Cn3cnc4ccccc43)nc12 [PP13] |  | 0.145 | 
15 | Cc1sc2nc(Cn3cnc4ccccc43)cc(=O)n2c1C [PP14] |  | 0.086 | 
16 | O=c1cc(Cn2cnc3ccccc32)nc2scc(-c3ccccc3)n12 [PP15] |  | 1.03 | 
17 | Cc1csc2nc(Cn3cnc4ccccc43)cc(=O)n12 [PP16] |  | 0.127 | 
18 | Cc1cn2c(=O)cc(Cn3cnc4ccccc43)nc2s1 [PP17] |  | 0.466 | 
19 | O=c1cc(Cn2cnc3ccccc32)nc2sccn12 [PP18] |  | 0.266 | 
20 | CCc1nn2c(=O)cc(Cn3cnc4ccccc43)nc2s1 [PP19] |  | 4.76 | 
21 | COc1cccc(NS(=O)(=O)c2cc3c(cc2Cl)NC(=O)CO3)c1 [PP20] | 108 | 0.153 | 
22 | CN[C@H]1CN(c2ccc3c(=O)c(C(=O)O)cn(-c4nccs4)c3n2)C[C@@H]1OC [Vosaroxin] |  |  | cell viability: activity in presence vs absence of Compound 91 (A549 cells [4]; A549 cells, Compound 91 at 4 μM, Cell-titer-Glo): no significant change; cell viability: activity in presence vs absence of Compound 91 (Panc1 cells): no significant change
23 | CC(C)C[C@H](NC(=O)[C@H](Cc1ccccc1)NC(=O)c1cnccn1)B(O)O [bortezomib] |  |  | decrease in EC50 when used in combination with Compound 91 (A549 cells [4]; A549 cells, Compound 91 at 4 μM vs drug alone): ~2 fold; EC50 (A549 cells [4]; [5]): 0.0434 µM; EC50 (A549 cells [4]; Homo sapiens, A549 cells, in the presence of Compound 91 at 4 μM, Cell-titer-Glo, read-out: EC50, cell viability, in combination with Compound 91): 0.027 µM
24 | CNC(=O)c1cc(Oc2ccc(NC(=O)Nc3ccc(Cl)c(C(F)(F)F)c3)cc2)ccn1 [sorafenib] |  |  | EC50 (A549 cells [4]; A549 cells, in the presence of Compound 91 at 4 μM, Cell-titer-Glo, read-out: EC50, cell viability, in combination with Compound 91): 7.13 µM; EC50 (A549 cells [4]; [5]): 30.1 µM

Now from value to molecule, other results behind:

Row | Max. Resp. (%) (PKM2) | AC50 (PKM2) [µM] | Compound | further results
25 | 49 | 2.76 | O=C(CCSC(=S)NCc1cccnc1)c1ccc([N+](=O)[O-])cc1 [PMA13] | 
26 |  | > 20 | O=C(CCSC(=S)NCc1cccnc1)c1ccc(OCc2ccccc2)cc1 [PMA15] | 
27 | 63 | 11.2 | COc1ccc(C(=O)CCSC(=S)NCc2cccnc2)cc1 [PMA16] | 
28 | 23 | > 20 | O=C(CCSC(=S)NCc1cccnc1)c1ccc(C(F)(F)F)cc1 [PMA17] | 
29 | 88 | 3.93 | COc1ccccc1C(=O)CCSC(=S)NCc1cccnc1 [PMA18] | 
30 | 63 | 5.61 | O=C(CCSC(=S)NCc1cccnc1)c1ccccc1Cl [PMA19] | 
31 | 42 | > 20 | O=C(CCSC(=S)NCc1cccnc1)c1ccc(F)c(F)c1 [PMA21] | 
32 | 131 | 10.1 | COc1cc(C(=O)CCSC(=S)NCc2cccnc2)cc(OC)c1OC [PMA22] | 
33 | 107 | 4.3 | O=C(CCSC(=S)NCc1cccnc1)c1ccco1 [PMA25] | 
34 | 20 | > 20 | O=C(CCSC(=S)NCc1cccnc1)c1cccs1 [PMA26] | 
35 | 126 | > 20 | O=C(CCSC(=S)NCc1cccnc1)c1ccc[nH]1 [PMA27] | 
36 | 72 | 3.56 | O=C(CCSC(=S)NCc1cccnc1)c1nccs1 [PMA28] | 
37 | 106 | 3.7 | O=C(CCSC(=S)NCc1cccnc1)c1cccnc1 [PMA29] | 
38 |  | > 20 | O=C(CCSC(=S)NCc1cccnc1)c1c[nH]c2ccccc12 [PMA31] | 
39 | 182 | 1 | O=C(CCSC(=S)NCc1cccnc1)c1c[nH]c2ncccc12 [PMA32] | 
40 | 101 | 18.1 | O=C(CCSC(=S)NCc1cccnc1)c1cnc2ccccn12 [PMA33] | 
41 | 30 | 4.34 | O=C(CCSC(=S)NCc1cccnc1)c1cc[nH]c1 [PMA35] | 

Source: patent US20200237766A1, “PKM2 ACTIVATORS IN COMBINATION WITH REACTIVE OXYGEN SPECIES FOR TREATMENT OF CANCER” (TOLERO PHARMACEUTICALS, INC., priority 2017, published 2020)
